Data as given in PMC10897476, “Pyridylpiperazine efflux pump inhibitor boosts in vivo antibiotic efficacy against K. pneumoniae” (EMBO Molecular Medicine, 2023).
Like-named read-outs stand apart in the source and are kept apart here. Marks after values point to notes of the source that are not given here.

Columns and labels:
K. pneumoniae AcrB^V448E = assay: MIC of antibiotics with and without EPI (REMA), AcrB V448E mutant; assay type: cell-based, Klebsiella pneumoniae; settings: for Minimum Inhibitory Concentration: K. pneumoniae AcrB^V448E; for MIC: Klebsiella pneumoniae, read-out: Minimum Inhibitory Concentration
Protocol: (§1) MIC experiments were carried out according to the CLSI guidelines (CLSI [2023]). Overnight cultures were diluted to an OD600 = 0.001 in CAMHB followed by addition of efflux pump inhibitors (EPIs) at a final concentration of 100 µM. […] Plates were incubated at 37 °C for up to 20 h. Bacterial viability was evaluated using the resazurin microtitre assay (REMA) and measured by fluorescence using a Tecan Spaert multimode plate reader (Ex: 530 nm Em: 590 nm). MICs were defined as the concentration that prevented 90% of resazurin turnover compared to the non-treated bacteria.
(§2) Mutations in acrB or ramR identified in the BDM88855.HCl (1’) resistant mutant (a.k.a., KPJC11) were introduced individually into K. pneumoniae ATCC 43816 chromosome by allelic exchange (Cianfanelli et al, [2020]). Briefly, 1-kb PCR products centred around each point mutation were generated by amplifying acrB with primers RH1251 ([…][…]) and RH1252 ([…][…]) or ramR with primers RH1249 ([…][…]) and RH1250 ([…][…]) from KPJC11 genomic DNA. PCR fragments were cloned into pFOK (Cianfanelli et al, [2020]) using NEB-building kit ([New England Biolabs]) to generate pEP1533 and pEP1534. Correct plasmids were confirmed by sequencing and introduced into K. pneumoniae ATCC43816 WT via conjugation with the MFDpir+ E. coli donor strain. Exconjugants were selected on kanamycin (50 mg/L) plates at 37 °C and plasmid chromosomal integration was checked by PCR. […] The next day, cultures were diluted and plated onto LB agar. Isolated colonies were then patched onto LB plates with or without kanamycin (50 mg/L) and Km^S candidates were evaluated for correct allelic exchange via acrB or ramR sequencing and then WGS to confirm no additional mutations were introduced.

[1] = tested on: K. pneumoniae AcrB^V448E RamR^mut; assay: MIC of antibiotics with and without EPI (REMA), double mutant; assay type: cell-based, Klebsiella pneumoniae; settings: for Minimum Inhibitory Concentration: K. pneumoniae AcrB^V448E RamR^mut; for MIC: Klebsiella pneumoniae, read-out: Minimum Inhibitory Concentration
Protocol: as §1

[2] = tested on: K. pneumoniae RamR^mut (K124*stop); assay: MIC of antibiotics with and without EPI (REMA), RamR mutant; assay type: cell-based, Klebsiella pneumoniae; settings: for Minimum Inhibitory Concentration: K. pneumoniae RamR^mut; for MIC: Klebsiella pneumoniae, read-out: Minimum Inhibitory Concentration
Protocol: as §1, §2

[3] = tested on: K. pneumoniae ATCC 43816 (WT); assay: MIC of antibiotics with and without EPI (REMA), WT strain; assay type: cell-based, Klebsiella pneumoniae; settings: for MIC: Klebsiella pneumoniae
Protocol: Overnight cultures were diluted to an OD600 = 0.001 in CAMHB followed by addition of efflux pump inhibitors (EPIs) at a final concentration of 100 µM. […] Plates were incubated at 37 °C for up to 20 h. […] MICs were defined as the concentration that prevented 90% of resazurin turnover compared to the non-treated bacteria.

E. coli BW25113 = assay: PyrPip boosting of pyridomycin activity in E. coli (resazurin reduction); assay type: cell-based, Escherichia coli; settings: for EC90: E. coli BW25113 in the presence of 8 μg/mL pyridomycin, resazurin reduction, mean ± SEM, read-out: PyrPip antibiotic boosting activity EC90
Excerpt: With the aim of developing a PyrPip for in vivo efficacy studies in mice, it was important to optimise the metabolic stability of these efflux pump inhibitors to guarantee sufficient exposure in mice needed for antibiotic boosting. […] To identify metabolically stabilised PyrPips while maintaining AcrB inhibition, it was therefore decided to explore modifications to the quinoline core as well as the introduction of substituents at position 6 of the quinoline ring.

[4] = Microsomal stability in mouse liver microsomes; assay type: in vitro ADME; settings: female; for microsomal CLint at 1 μM: CD-1, pH 7.4, read-out: Microsomal stability CLint (intrinsic clearance); for half-life at 1 μM: CD-1, pH 7.4, read-out: Microsomal stability t1/2
Protocol: To determine compound microsomal stability, liver microsomes from female mice (CD-1, Corning) were used. All incubations were performed in duplicate in a shaking water bath at 37 °C. The incubation mixtures contained 1 μM compound with 1% MeOH used as a vehicle, mouse liver microsomes (0.3 mg of microsomal protein per mL), 5 mM MgCl2, 1 mM NADP, 5 mM glucose 6-phosphate, 0.4 U/mL glucose 6-phosphate dehydrogenase, and 50 mM potassium phosphate buffer (pH 7.4) in a final volume of 0.5 mL. Propranolol, known as a high hepatic clearance drug in rodents, was used as a quality-control compound. Controls (t0 and tfinal) were performed in the same conditions but without NADP. The reaction was initiated by the addition of the compound at 1 µM final. Aliquots were removed at 5, 10, 20, 30, and 40 min and the reaction was stopped by adding four volumes of ice-cold MeCN or MeOH containing an internal standard. The samples were centrifuged for 10 min at 12,000 rpm at 4 °C and the supernatants were transferred in matrix tubes for LC-MS/MS analysis. Each compound was quantified by converting the corresponding analyte/internal standard peak area ratios to percentage drug remaining, using the initial ratio values in control incubations as 100%.
Intrinsic clearance (CLint) is expressed as μL/min/mg proteins.

[5] = K. pneumoniae WT, + 100 µM PAβN
[6] = ATCC43816, K. pneumoniae WT, No EPI, read-out: Minimum Inhibitory Concentration

SMILES: C[C@@H](O)[C@H]1C(=O)N2C(C(=O)O)=C(S[C@@H]3CN[C@H](C(=O)N(C)C)C3)[C@H](C)[C@H]12 [Meropenem]
- Minimum Inhibitory Concentration (K. pneumoniae AcrB^V448E; + 100 µM 1'): 0.67 mg/L
- Minimum Inhibitory Concentration (K. pneumoniae AcrB^V448E; + 100 µM 5): 0.50 mg/L
- Minimum Inhibitory Concentration (K. pneumoniae AcrB^V448E; + 100 µM PAβN): 0.50 mg/L
- MIC (K. pneumoniae AcrB^V448E): 0.5 µg/mL
- Minimum Inhibitory Concentration ([1]; + 100 µM 1'): 0.50 mg/L
- Minimum Inhibitory Concentration ([1]; + 100 µM 5): 0.50 mg/L
- Minimum Inhibitory Concentration ([1]; + 100 µM PAβN): 1.0 mg/L
- MIC [1]: 0.67 µg/mL
- Minimum Inhibitory Concentration ([2]; + 100 µM 1'): 0.50 mg/L
- Minimum Inhibitory Concentration ([2]; + 100 µM 5): 0.50 mg/L
- Minimum Inhibitory Concentration ([2]; + 100 µM PAβN): 0.50 mg/L
- MIC [2]: 0.5 µg/mL
- Minimum Inhibitory Concentration ([3]; K. pneumoniae WT, + 100 µM 1'): 0.50 mg/L
- Minimum Inhibitory Concentration ([3]; K. pneumoniae WT, + 100 µM 5): 0.50 mg/L
- Minimum Inhibitory Concentration [3, 5]: 0.50 mg/L
- MIC [3, 6]: 0.5 µg/mL

SMILES: CO[C@@H]1[C@@H](OC(N)=O)[C@@H](O)[C@H](Oc2ccc3c(O)c(NC(=O)c4ccc(O)c(CC=C(C)C)c4)c(=O)oc3c2C)OC1(C)C [Novobiocin]
- Minimum Inhibitory Concentration (K. pneumoniae AcrB^V448E; + 100 µM 1'): 64^# mg/L
- Minimum Inhibitory Concentration (K. pneumoniae AcrB^V448E; + 100 µM 5): 32^# mg/L
- Minimum Inhibitory Concentration (K. pneumoniae AcrB^V448E; + 100 µM PAβN): 16^# mg/L
- Minimum Inhibitory Concentration (K. pneumoniae AcrB^V448E; No EPI): 128 mg/L
- Minimum Inhibitory Concentration ([1]; + 100 µM 1'): 128 mg/L
- Minimum Inhibitory Concentration ([1]; + 100 µM 5): 128 mg/L
- Minimum Inhibitory Concentration ([1]; + 100 µM PAβN): 8^# mg/L
- Minimum Inhibitory Concentration ([1]; No EPI): 128 mg/L
- Minimum Inhibitory Concentration ([2]; + 100 µM 1'): 128 mg/L
- Minimum Inhibitory Concentration ([2]; + 100 µM 5): 85 mg/L
- Minimum Inhibitory Concentration ([2]; + 100 µM PAβN): 43^# mg/L
- Minimum Inhibitory Concentration ([2]; No EPI): 128 mg/L
- Minimum Inhibitory Concentration ([3]; K. pneumoniae WT, + 100 µM 1'): 13^# mg/L
- Minimum Inhibitory Concentration ([3]; K. pneumoniae WT, + 100 µM 5): 13^# mg/L
- Minimum Inhibitory Concentration [3, 5]: 11^# mg/L
- MIC [3, 6]: 64 µg/mL

SMILES: CCN1CCN(C(=O)N[C@@H](C(=O)N[C@@H]2C(=O)N3[C@@H]2SC(C)(C)[C@@H]3C(=O)O)c2ccccc2)C(=O)C1=O [Piperacillin]
- Minimum Inhibitory Concentration (K. pneumoniae AcrB^V448E; + 100 µM 1'): 5.3^# mg/L
- Minimum Inhibitory Concentration (K. pneumoniae AcrB^V448E; + 100 µM 5): 5.3^# mg/L
- Minimum Inhibitory Concentration (K. pneumoniae AcrB^V448E; + 100 µM PAβN): 13 mg/L
- MIC (K. pneumoniae AcrB^V448E): 16 µg/mL
- Minimum Inhibitory Concentration ([1]; + 100 µM 1'): 37 mg/L
- Minimum Inhibitory Concentration ([1]; + 100 µM 5): 21 mg/L
- Minimum Inhibitory Concentration ([1]; + 100 µM PAβN): 43 mg/L
- MIC [1]: 21 µg/mL
- Minimum Inhibitory Concentration ([2]; + 100 µM 1'): 16 mg/L
- Minimum Inhibitory Concentration ([2]; + 100 µM 5): 6.7^# mg/L
- Minimum Inhibitory Concentration ([2]; + 100 µM PAβN): 21 mg/L
- MIC [2]: 27 µg/mL
- Minimum Inhibitory Concentration ([3]; K. pneumoniae WT, + 100 µM 1'): 5.3 mg/L
- Minimum Inhibitory Concentration ([3]; K. pneumoniae WT, + 100 µM 5): 4.0^# mg/L
- Minimum Inhibitory Concentration [3, 5]: 8.0 mg/L
- MIC [3, 6]: 8 µg/mL

SMILES: CN(C)[C@@H]1C(O)=C(C(N)=O)C(=O)[C@@]2(O)C(O)=C3C(=O)c4c(O)cccc4[C@@](C)(O)[C@H]3C[C@@H]12 [Tetracycline]
- Minimum Inhibitory Concentration (K. pneumoniae AcrB^V448E; + 100 µM 1'): 0.8^# mg/L
- Minimum Inhibitory Concentration (K. pneumoniae AcrB^V448E; + 100 µM 5): 0.7^# mg/L
- Minimum Inhibitory Concentration (K. pneumoniae AcrB^V448E; + 100 µM PAβN): 2.7 mg/L
- MIC (K. pneumoniae AcrB^V448E): 1.9 µg/mL
- Minimum Inhibitory Concentration ([1]; + 100 µM 1'): 11 mg/L
- Minimum Inhibitory Concentration ([1]; + 100 µM 5): 8.5 mg/L
- Minimum Inhibitory Concentration ([1]; + 100 µM PAβN): 4.3^# mg/L
- MIC [1]: 11 µg/mL
- Minimum Inhibitory Concentration ([2]; + 100 µM 1'): 1.1^# mg/L
- Minimum Inhibitory Concentration ([2]; + 100 µM 5): 0.7^# mg/L
- Minimum Inhibitory Concentration ([2]; + 100 µM PAβN): 4.3^# mg/L
- MIC [2]: 8.5 µg/mL
- Minimum Inhibitory Concentration ([3]; K. pneumoniae WT, + 100 µM 1'): 0.4^# mg/L
- Minimum Inhibitory Concentration ([3]; K. pneumoniae WT, + 100 µM 5): 0.4^# mg/L
- Minimum Inhibitory Concentration [3, 5]: 1.3 mg/L
- MIC ([3]; ATCC43816, read-out: Minimum Inhibitory Concentration): 0.8 µg/mL

SMILES: Clc1nc2ccccc2cc1N1CCNCC1 [compound 2]
- EC90 (E. coli BW25113): 15.6 µM
- decrease in potency (EC90) on changing the position of the nitrogen atom (E. coli BW25113; relative to BDM88855.HCl (1’)): 4 fold

SMILES: Clc1nc2ccccc2nc1N1CCNCC1 [compound 3]
- microsomal CLint at 1 μM [4]: 111 µL/min/mg
- half-life at 1 μM [4]: 15 min
- EC90 (E. coli BW25113): 3.9 ± 1.6 µM

SMILES: Clc1cc2cc[nH]c2nc1N1CCNCC1 [compound 4]
- EC90 (E. coli BW25113): > 250 µM

SMILES: Clc1cc2cc(N3CCOCC3)ccc2nc1N1CCNCC1 [compound 6]
- microsomal CLint at 1 μM [4]: 103 µL/min/mg
- half-life at 1 μM [4]: 11 min
- EC90 (E. coli BW25113): 104 ± 28 µM

SMILES: Clc1cc2cc(N3CCCCC3)ccc2nc1N1CCNCC1 [compound 7]
- microsomal CLint at 1 μM [4]: 223 µL/min/mg
- half-life at 1 μM [4]: 6 min
- EC90 (E. coli BW25113): 13 ± 4 µM

SMILES: O=C1CNCCN1c1ccc2nc(N3CCNCC3)c(Cl)cc2c1 [compound 8]
- EC90 (E. coli BW25113): 31 µM
- decrease in potency (EC90) (E. coli BW25113; piperazinone in place of the piperazine of compound 5): 8 fold

SMILES: NCCNc1ccc2nc(N3CCNCC3)c(Cl)cc2c1 [compound 9]
- microsomal CLint at 1 μM [4]: 47 µL/min/mg
- half-life at 1 μM [4]: 40 min
- EC90 (E. coli BW25113): 3.9 µM

SMILES: NCC(=O)Nc1ccc2nc(N3CCNCC3)c(Cl)cc2c1 [compound 10]
- microsomal CLint at 1 μM [4]: 2 µL/min/mg
- half-life at 1 μM [4]: > 40 min
- EC90 (E. coli BW25113): 3.9 µM

SMILES: NCCCNc1ccc2nc(N3CCNCC3)c(Cl)cc2c1 [compound 11]
- EC90 (E. coli BW25113): 7.8 µM
- decrease in potency (EC90) (E. coli BW25113; relative to compound 9): 2 fold

SMILES: N[C@@H]1CCN(c2ccc3nc(N4CCNCC4)c(Cl)cc3c2)C1 [compound 12]
- microsomal CLint at 1 μM [4]: 303 µL/min/mg
- half-life at 1 μM [4]: 2.6 min
- EC90 (E. coli BW25113): 1.3 ± 0.4 µM
- improvement of potency (EC90) (E. coli BW25113; compared to analogue 5): 3 fold

SMILES: N[C@H]1CCN(c2ccc3nc(N4CCNCC4)c(Cl)cc3c2)C1 [compound 13]
- EC90 (E. coli BW25113): 9.1 ± 4.3 µM
